Measured values published in patent US20240158446A1, “CYCLIC COMPOUND HAVING SELECTIVE INHIBITORY ACTION ON KRAS OVER HRAS AND NRAS” (CHUGAI SEIYAKU KABUSHIKI KAISHA, priority 2021, published 2024).
Read-outs that look alike come from different tables or passages of the source. Where a SMILES comes first, the peptide text is derived from it. Bridges are numbered along the chain shown (N, C = ends). [ ]: non-standard residue; d: D form. The star is where a group is joined. hPhe(3-Cl-4-CF3) = N[C@@H](CCc1ccc(C(F)(F)F)c(Cl)c1)C(=O)O; NPrPhe(4-CF3) = CCCN[C@@H](Cc1ccc(C(F)(F)F)cc1)C(=O)O; NMeGly(cPent) = CN[C@H](C(=O)O)C1CCCC1; cisHyp = O=C(O)[C@@H]1C[C@H](O)CN1; Hyp = O=C(O)[C@@H]1C[C@@H](O)CN1; NMeD = CN[C@@H](CC(=O)O)C(=O)O; NMeL = CN[C@@H](CC(C)C)C(=O)O; Morpholide = C1CN(*)CCO1; Ac5c = NC1(C(=O)O)CCCC1; Aze = O=C(O)[C@@H]1CCN1; Ac4c = NC1(C(=O)O)CCC1; Sar = CNCC(=O)O

Experiments:
[1] = molecular target: GDP-bound NRAS wild-type protein (Homo sapiens, UniProt P01111); assay: Binding to NRAS by surface plasmon resonance (SPR), Single Cycle Kinetics; details: for NRAS/KRAS (ratio of KD value for NRAS to KD value for KRAS): SPR, GDP-bound NRAS wild-type protein vs GDP-bound KRAS wild-type protein; for NRAS/KRAS (ratio of KD value with respect to GDP-bound NRAS wild-type protein to KD value with respect to KRAS): SPR KD ratio NRAS/KRAS, class symbols
[2] = molecular target: GDP-bound KRAS wild-type protein (Homo sapiens, UniProt P01116); assay: Binding to KRAS by surface plasmon resonance (SPR), Single Cycle Kinetics; details: GDP-bound KRAS wild-type protein, read-out: KRAS KD
[3] = molecular target: GDP-bound HRAS wild-type protein (Homo sapiens, UniProt P01112); assay: Binding to HRAS by surface plasmon resonance (SPR), Single Cycle Kinetics; details: for HRAS/KRAS (ratio of KD value for HRAS to KD value for KRAS): SPR, GDP-bound HRAS wild-type protein vs GDP-bound KRAS wild-type protein; for HRAS/KRAS (ratio of KD value with respect to GDP-bound HRAS wild-type protein to KD value with respect to KRAS): SPR KD ratio HRAS/KRAS, class symbols
[4] = SPR Single Cycle Kinetics, 1:1 binding model

Sequence of GDP-bound NRAS wild-type protein (P01111 whole entry): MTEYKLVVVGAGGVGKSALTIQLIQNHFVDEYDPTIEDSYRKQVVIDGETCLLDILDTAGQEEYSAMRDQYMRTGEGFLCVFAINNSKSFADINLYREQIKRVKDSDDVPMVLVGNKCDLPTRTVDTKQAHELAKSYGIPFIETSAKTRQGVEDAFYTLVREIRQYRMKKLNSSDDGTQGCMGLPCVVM
Sequence of GDP-bound KRAS wild-type protein (P01116 whole entry): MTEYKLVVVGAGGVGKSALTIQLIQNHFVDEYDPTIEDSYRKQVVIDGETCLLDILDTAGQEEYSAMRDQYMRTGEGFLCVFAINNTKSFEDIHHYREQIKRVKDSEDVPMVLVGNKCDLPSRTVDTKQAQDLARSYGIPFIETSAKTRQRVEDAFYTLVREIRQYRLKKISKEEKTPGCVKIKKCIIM
Sequence of GDP-bound HRAS wild-type protein (P01112 whole entry): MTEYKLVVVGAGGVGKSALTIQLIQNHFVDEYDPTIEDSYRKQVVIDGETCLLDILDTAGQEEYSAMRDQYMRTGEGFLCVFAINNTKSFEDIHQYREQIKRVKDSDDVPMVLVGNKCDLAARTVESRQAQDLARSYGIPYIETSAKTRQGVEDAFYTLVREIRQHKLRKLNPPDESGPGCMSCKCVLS

## CCO[C@@H]1C[C@H]2C(=O)NC3(CC=CC3)C(=O)N(C)[C@@H](C3CCCC3)C(=O)N(CC)[C@H](C(=O)N3CCOCC3)CC(=O)N(C)[C@@H](CC(C)C)C(=O)N[C@@H]([C@@H](C)CC)C(=O)N(C)CC(=O)N(C)[C@H]3CCCCCN(C3=O)[C@@H](Cc3ccc(C(F)(F)F)cc3)C(=O)N(C)CC(=O)N[C@@H](CCc3cc(F)c(C(F)(F)F)c(F)c3)C(=O)N2C1 [PP0956]
[1]
  NRAS/KRAS (ratio of KD value for NRAS to KD value for KRAS): A (a compound having 10 or more and less than 20 is denoted as A)
[2]; SPR, Single Cycle Kinetics
  Kd: 7.2 nM
[3]
  HRAS/KRAS (ratio of KD value for HRAS to KD value for KRAS): A (a compound having 10 or more and less than 20 is denoted as A)

## CCC[C@H]1C(=O)N[C@@H](C2CCCC2)C(=O)N(C)CC(=O)N(C)[C@H]2C/C=C\CCN(C2=O)[C@@H](Cc2ccc(C)cc2)C(=O)N(C)CC(=O)N[C@@H](CCc2ccc(C(F)(F)F)c(Cl)c2)C(=O)N2C[C@H](OCC)C[C@H]2C(=O)NC2(CC(C)(C)C2)C(=O)N(C)[C@@H](CC(C)(C)C)C(=O)N(C)[C@H](C(=O)N(C)C)CC(=O)N1C [PP2196]
[1]
  NRAS/KRAS (ratio of KD value for NRAS to KD value for KRAS): A (a compound having 10 or more and less than 20 is denoted as A)
[2]; SPR, Single Cycle Kinetics
  Kd: 0.24 nM
[3]
  HRAS/KRAS (ratio of KD value for HRAS to KD value for KRAS): B (a compound having 3 or more and less than 10 is denoted as B)

## CCO[C@@H]1C[C@H]2C(=O)NC3(CC(C)(C)C3)C(=O)N(C)[C@@H](C(CC)CC)C(=O)N(C)[C@H](C(=O)N(C)C)CC(=O)N(C)[C@@H](C(C)C)C(=O)N[C@@H]([C@@H](C)CC)C(=O)N(C)CC(=O)N(C)[C@H]3C/C=C\CCN(C3=O)[C@@H](Cc3ccc(C)cc3)C(=O)N(C)CC(=O)N[C@@H](CCc3ccc(C(F)(F)F)c(OC)c3)C(=O)N2C1 [PP2173]
[1]
  NRAS/KRAS (ratio of KD value for NRAS to KD value for KRAS): A (a compound having 10 or more and less than 20 is denoted as A)
[2]; SPR, Single Cycle Kinetics
  Kd: 0.55 nM
[3]
  HRAS/KRAS (ratio of KD value for HRAS to KD value for KRAS): A (a compound having 10 or more and less than 20 is denoted as A)

## CCO[C@@H]1C[C@H]2C(=O)NC3(CC(C)(C)C3)C(=O)N(C)[C@@H](C(CC)CC)C(=O)N(C)[C@H](C(=O)N(C)C)CC(=O)N(C)[C@H]3CCC/C=C/c4ccc(cc4)C[C@@H](C(=O)N(C)CC(=O)N[C@@H](CCc4cc(F)c(C(F)(F)F)c(F)c4)C(=O)N2C1)N1CC/C=C\C[C@@H](C1=O)N(C)C(=O)CN(C)C(=O)[C@H]([C@@H](C)CC)NC3=O [PP2575]
[1]
  NRAS/KRAS (ratio of KD value with respect to GDP-bound NRAS wild-type protein to KD value with respect to KRAS): A (a compound having 10 or more and less than 20 is denoted as A)
[2]; [4]
  Kd: 0.086 nM
[3]
  HRAS/KRAS (ratio of KD value with respect to GDP-bound HRAS wild-type protein to KD value with respect to KRAS): A (a compound having 10 or more and less than 20 is denoted as A)

## CCCN1C(=O)CN(C)C(=O)CN(C)C(=O)[C@H]([C@@H](C)CC)NC(=O)[C@H](CC(C)C)N(C)C(=O)C[C@@H](C(=O)N2CCOCC2)N(C)C(=O)[C@H](C2CCCC2)N(C)C(=O)C2(CCCC2)NC(=O)[C@@H]2C[C@H](OCC)CN2C(=O)[C@H](CCc2ccc(C(F)(F)F)c(Cl)c2)NC(=O)CN(C)C(=O)[C@@H]1Cc1ccc(C(F)(F)F)cc1 [PP0243] ([NMeL]I[Sar][Sar][NPrPhe(4-CF3)][Sar][hPhe(3-Cl-4-CF3)][cisHyp](Et)[Ac5c][NMeGly(cPent)][NMeD]-Morpholide; lactam N-11)
[1]
  NRAS/KRAS (ratio of KD value for NRAS to KD value for KRAS): B (a compound having 3 or more and less than 10 is denoted as B)
[2]; [4]
  Kd: 0.31 nM
[3]
  HRAS/KRAS (ratio of KD value for HRAS to KD value for KRAS): C (A compound having a KD ratio of 0.1 or more and less than 3 is denoted as C)

## CCO[C@@H]1C[C@H]2C(=O)NC3(CC(C)(C)C3)C(=O)N(C)[C@@H](C3CCCC3)C(=O)N(C)[C@H](C(=O)N(C)CC)CC(=O)N(C)[C@H]3CCCC/C=C/c4ccc(cc4)C[C@@H](C(=O)N(C)CC(=O)N[C@@H](CCc4ccc(Cl)c(Cl)c4)C(=O)N2C1)N1CC/C=C\C[C@@H](C1=O)N(C)C(=O)CN(C)C(=O)[C@H]([C@@H](C)CC)NC3=O [PP2592]
[1]
  NRAS/KRAS (ratio of KD value with respect to GDP-bound NRAS wild-type protein to KD value with respect to KRAS): A (a compound having 10 or more and less than 20 is denoted as A)
[2]; [4]
  Kd: 0.13 nM
[3]
  HRAS/KRAS (ratio of KD value with respect to GDP-bound HRAS wild-type protein to KD value with respect to KRAS): A (a compound having 10 or more and less than 20 is denoted as A)

## CCCN1C(=O)CN(C)C(=O)[C@@H]2CCN2C(=O)[C@H]([C@@H](C)CC)NC(=O)[C@H](CC(C)C)N(C)C(=O)C[C@@H](C(=O)N2CCOCC2)NC(=O)[C@H](C2CCCC2)N(C)C(=O)C2(CCC2)NC(=O)[C@@H]2C[C@@H](OCC)CN2C(=O)[C@H](CCc2ccc(C(F)(F)F)c(Cl)c2)NC(=O)CN(C)C(=O)[C@@H]1Cc1ccc(C(F)(F)F)cc1 [PP0342] ([NMeL]I[Aze][Sar][NPrPhe(4-CF3)][Sar][hPhe(3-Cl-4-CF3)][Hyp](Et)[Ac4c][NMeGly(cPent)]D-Morpholide; lactam N-11)
[1]
  NRAS/KRAS (ratio of KD value for NRAS to KD value for KRAS): B (a compound having 3 or more and less than 10 is denoted as B)
[2]; [4]
  Kd: 1.7 nM
[3]
  HRAS/KRAS (ratio of KD value for HRAS to KD value for KRAS): B (a compound having 3 or more and less than 10 is denoted as B)
